Source: US20060110451A1, “Formulations of [1,4]diazepino[6,7,1-IJ]quinoline derivatives” (priority 2004, published 2006)
Where two headings read alike, the source gives them in different places.

Experiments:
[1] = target: T1, 5-HT2C (Homo sapiens, UniProt P28335); conditions: cited from earlier work
T1 sequence (P28335 33-458): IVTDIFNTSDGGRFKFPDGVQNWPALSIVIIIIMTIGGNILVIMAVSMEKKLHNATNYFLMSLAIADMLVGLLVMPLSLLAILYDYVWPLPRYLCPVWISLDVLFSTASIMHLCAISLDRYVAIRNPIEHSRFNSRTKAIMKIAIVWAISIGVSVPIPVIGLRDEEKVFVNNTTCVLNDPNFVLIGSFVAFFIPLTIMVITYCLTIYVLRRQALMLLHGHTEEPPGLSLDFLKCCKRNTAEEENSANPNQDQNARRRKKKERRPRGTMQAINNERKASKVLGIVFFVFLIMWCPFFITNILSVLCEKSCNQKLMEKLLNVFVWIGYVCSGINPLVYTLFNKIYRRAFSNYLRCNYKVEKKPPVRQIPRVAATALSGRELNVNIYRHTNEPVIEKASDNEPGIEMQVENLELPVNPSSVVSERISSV

[2] = Ascending multiple dose pharmacokinetics of enteric coated capsules in schizophrenic patients; type: in vivo, human; conditions: for Tmax / half-life / AUC(0-t) / Cmax / AUC(0-inf): plasma
Method: Ascending multiple doses of 100, 150, and 250 mg Compound A.HCl were administered as twice-daily regimen (q12h) for 10 days in cohorts of 8 schizophrenic patients (6 active and 2 placebo). Blood samples for Compound A.HCl analysis were obtained on day 1 within 2 hours of test article administration and at various time points from 0.5 to 24 hours after test article administration. On day 10, blood samples were collected up to 12 hours after dose administration. Doses were administered orally after an overnight fast of at least 10 hours on these 2 days. Trough PK samples were collected on days 6, 8, and 9 to assess whether steady-state has been reached.
FIGS. 7A and 7B show the relationship between Cmax vs. dose and AUC vs. dose, respectively.

[3] = Early toxicology testing in dogs; type: in vivo; conditions: oral suspension
Excerpt: Enteric-coated capsules were developed which delayed the release of the drug. […] For human clinical studies, enteric-coated pellets were developed which provided advantages over enteric-coated capsules for dose flexibility and more uniform release in the intestinal tract.

[4] = Single ascending dose study; type: in vivo; conditions: single oral doses of 500 mg

With `Cl.c1cc2c3c(c1)[C@H]1CCC[C@H]1CN3CCNC2` [Compound A.HCl, (9aR,12aS)-4,5,6,7,9,9a,10,11,12,12a-decahydrocyclopenta[c][1,4]diazepino[6,7,1-ij]quinoline hydrochloride] as the molecule, how does the 5-HT2C agonist activity [1] read?
Its 5-HT2C agonist activity is “potent 5-HT2C agonist”.

What about the “relationship between dose and exposure” value ([2]; after excluding 2 outlier patients) of the same molecule?
The value was “approximately linear”.

And the “difference in Tmax or t1/2” value ([2]; at the 250 mg q12h dose level)?
The value was “no significant difference”.

And the “differences in pharmacokinetics between healthy subjects and schizophrenic patients” value ([2]; human, in vivo)?
The value was “No significant differences”.

And the Tmax ([2]; human, oral, schizophrenic patients, single and multiple dose administration, enteric-coated formulation, read-out: mean Tmax)?
Its Tmax is 4 to 5 h.

And the half-life ([2]; human, oral, schizophrenic patients, single dose administration, read-out: mean elimination t1/2)?
The half-life was 8 to 10 h.

And the AUC(0-t) ([2]; human, po, 100 mg, Schizophrenia patients, multiple oral doses (q12 h) 100 mg, day 10, read-out: AUCss (AUC0-12) (Geom. Mean))?
Its AUC(0-t) is 0.0312 µg·h/mL.

What about the AUC(0-t) ([2]; human, po, 100 mg, Schizophrenia patients, multiple oral doses (q12 h) 100 mg, day 10, read-out: AUCss (AUC0-12) (Mean)) of the same molecule?
Its AUC(0-t) is roughly 0.0332 µg·h/mL.

What about the Cmax ([2]; human, po, 100 mg, Schizophrenia patients, multiple oral doses (q12 h) 100 mg, day 10, read-out: Cmax (Geom. Mean)) of the same molecule?
Its Cmax is 3.82 ng/mL.

What about the Cmax ([2]; human, po, 100 mg, Schizophrenia patients, multiple oral doses (q12 h) 100 mg, day 10, read-out: Cmax (Mean)) of the same molecule?
Its Cmax is 4 ng/mL.

What about the Tmax ([2]; human, po, 100 mg, Schizophrenia patients, multiple oral doses (q12 h) 100 mg, day 10, read-out: Tmax (Geom. Mean)) of the same molecule?
Its Tmax is 4.6 h.

And the Tmax ([2]; human, po, 100 mg, Schizophrenia patients, multiple oral doses (q12 h) 100 mg, day 10, read-out: Tmax (Mean))?
The Tmax was 4.8 h.

And the AUC(0-inf) ([2]; human, po, 100 mg, Schizophrenia patients, single oral dose 100 mg, day 1, read-out: AUC0-∞ (Geom. Mean))?
Its AUC(0-inf) is 0.0271 µg·h/mL.

And the AUC(0-inf) ([2]; human, po, 100 mg, Schizophrenia patients, single oral dose 100 mg, day 1, read-out: AUC0-∞ (Mean))?
Its AUC(0-inf) is 0.0306 µg·h/mL.

What about the Cmax ([2]; human, po, 100 mg, Schizophrenia patients, single oral dose 100 mg, day 1, read-out: Cmax (Geom. Mean)) of the same molecule?
The Cmax was 2.07 ng/mL.

And the Cmax ([2]; human, po, 100 mg, Schizophrenia patients, single oral dose 100 mg, day 1, read-out: Cmax (Mean))?
Its Cmax is 2.21 ng/mL.

And the Tmax ([2]; human, po, 100 mg, Schizophrenia patients, single oral dose 100 mg, day 1, read-out: Tmax (Geom. Mean))?
Its Tmax is 4.7 h.

And the Tmax ([2]; human, po, 100 mg, Schizophrenia patients, single oral dose 100 mg, day 1, read-out: Tmax (Mean))?
Its Tmax is 4.8 h.

What about the half-life ([2]; human, po, 100 mg, Schizophrenia patients, single oral dose 100 mg, day 1, read-out: t1/2 (Geom. Mean) (converted)) of the same molecule?
Its half-life is 8.67 h.

What about the half-life ([2]; human, po, 100 mg, Schizophrenia patients, single oral dose 100 mg, day 1, read-out: t1/2 (Mean) (converted)) of the same molecule?
Its half-life is 8.93 h.

And the AUC(0-t) ([2]; human, po, 150 mg, Schizophrenia patients, multiple oral doses (q12 h) 150 mg, day 10, read-out: AUCss (AUC0-12) (Geom. Mean))?
The AUC(0-t) was 0.0513 µg·h/mL.

And the AUC(0-t) ([2]; human, po, 150 mg, Schizophrenia patients, multiple oral doses (q12 h) 150 mg, day 10, read-out: AUCss (AUC0-12) (Mean))?
The AUC(0-t) was roughly 0.0549 µg·h/mL.

And the Cmax ([2]; human, po, 150 mg, Schizophrenia patients, multiple oral doses (q12 h) 150 mg, day 10, read-out: Cmax (Geom. Mean))?
Its Cmax is 6.67 ng/mL.

What about the Cmax ([2]; human, po, 150 mg, Schizophrenia patients, multiple oral doses (q12 h) 150 mg, day 10, read-out: Cmax (Mean)) of the same molecule?
Its Cmax is 7.21 ng/mL.

And the Tmax ([2]; human, po, 150 mg, Schizophrenia patients, multiple oral doses (q12 h) 150 mg, day 10, read-out: Tmax (Geom. Mean))?
The Tmax was 4.2 h.

And the Tmax ([2]; human, po, 150 mg, Schizophrenia patients, multiple oral doses (q12 h) 150 mg, day 10, read-out: Tmax (Mean))?
The Tmax was 4.3 h.

And the AUC(0-inf) ([2]; human, po, 150 mg, Schizophrenia patients, single oral dose 150 mg, day 1, read-out: AUC0-∞ (Geom. Mean))?
The AUC(0-inf) was 0.034 µg·h/mL.

What about the AUC(0-inf) ([2]; human, po, 150 mg, Schizophrenia patients, single oral dose 150 mg, day 1, read-out: AUC0-∞ (Mean)) of the same molecule?
Its AUC(0-inf) is 0.0356 µg·h/mL.

And the Cmax ([2]; human, po, 150 mg, Schizophrenia patients, single oral dose 150 mg, day 1, read-out: Cmax (Geom. Mean))?
The Cmax was 3.09 ng/mL.

And the Cmax ([2]; human, po, 150 mg, Schizophrenia patients, single oral dose 150 mg, day 1, read-out: Cmax (Mean))?
The Cmax was 3.37 ng/mL.

And the Tmax ([2]; human, po, 150 mg, Schizophrenia patients, single oral dose 150 mg, day 1, read-out: Tmax (Geom. Mean))?
Its Tmax is 4.2 h.

And the Tmax ([2]; human, po, 150 mg, Schizophrenia patients, single oral dose 150 mg, day 1, read-out: Tmax (Mean))?
Its Tmax is 4.6 h.

What about the half-life ([2]; human, po, 150 mg, Schizophrenia patients, single oral dose 150 mg, day 1, read-out: t1/2 (Geom. Mean) (converted)) of the same molecule?
The half-life was 9.25 h.

What about the half-life ([2]; human, po, 150 mg, Schizophrenia patients, single oral dose 150 mg, day 1, read-out: t1/2 (Mean) (converted)) of the same molecule?
The half-life was 9.49 h.

And the AUC(0-t) ([2]; human, po, 250 mg, Schizophrenia patients, multiple oral doses (q12 h) 250 mg, day 10, read-out: AUCss (AUC0-12) (Geom. Mean))?
Its AUC(0-t) is 0.134 µg·h/mL.

And the AUC(0-t) ([2]; human, po, 250 mg, Schizophrenia patients, multiple oral doses (q12 h) 250 mg, day 10, read-out: AUCss (AUC0-12) (Mean))?
The AUC(0-t) was roughly 0.173 µg·h/mL.

And the Cmax ([2]; human, po, 250 mg, Schizophrenia patients, multiple oral doses (q12 h) 250 mg, day 10, read-out: Cmax (Geom. Mean))?
The Cmax was 15.9 ng/mL.

What about the Cmax ([2]; human, po, 250 mg, Schizophrenia patients, multiple oral doses (q12 h) 250 mg, day 10, read-out: Cmax (Mean)) of the same molecule?
Its Cmax is 20.6 ng/mL.

What about the Tmax ([2]; human, po, 250 mg, Schizophrenia patients, multiple oral doses (q12 h) 250 mg, day 10, read-out: Tmax (Mean)) of the same molecule?
The Tmax was 4.8 h.

What about the AUC(0-inf) ([2]; human, po, 250 mg, Schizophrenia patients, single oral dose 250 mg, day 1, read-out: AUC0-∞ (Geom. Mean)) of the same molecule?
Its AUC(0-inf) is 0.0761 µg·h/mL.

What about the AUC(0-inf) ([2]; human, po, 250 mg, Schizophrenia patients, single oral dose 250 mg, day 1, read-out: AUC0-∞ (Mean)) of the same molecule?
Its AUC(0-inf) is 0.109 µg·h/mL.

What about the Cmax ([2]; human, po, 250 mg, Schizophrenia patients, single oral dose 250 mg, day 1, read-out: Cmax (Geom. Mean)) of the same molecule?
Its Cmax is 5.71 ng/mL.

And the Cmax ([2]; human, po, 250 mg, Schizophrenia patients, single oral dose 250 mg, day 1, read-out: Cmax (Mean))?
Its Cmax is 8.89 ng/mL.

And the Tmax ([2]; human, po, 250 mg, Schizophrenia patients, single oral dose 250 mg, day 1, read-out: Tmax (Geom. Mean))?
Its Tmax is 4.7 h.

What about the Tmax ([2]; human, po, 250 mg, Schizophrenia patients, single oral dose 250 mg, day 1, read-out: Tmax (Mean)) of the same molecule?
Its Tmax is 5 h.

And the half-life ([2]; human, po, 250 mg, Schizophrenia patients, single oral dose 250 mg, day 1, read-out: t1/2 (Geom. Mean) (converted))?
The half-life was 7.74 h.

And the half-life ([2]; human, po, 250 mg, Schizophrenia patients, single oral dose 250 mg, day 1, read-out: t1/2 (Mean) (converted))?
The half-life was 8.04 h.

And the “reaction noted in toxicology testing” value [3]?
The value was “emetic reaction”.

What about the “dose proportionality of exposure” value [4] of the same molecule?
Its value is “signs of nonlinearity”.
